Results as given in patent US11732259B2, “Peptide oligonucleotide conjugates” (Sarepta Therapeutics, Inc., priority 2011, dated 2023).
{EG3} = triethylene glycol 5' cap structure on the morpholino oligomer

Key:
[1] = test system: exon 23 of the dystrophin gene; settings: in vivo; cited from earlier work
dystrophin mRNA exon 23 = experiment: Exon 23 skipping in MDX mice, end-point PCR on muscle RNA
Procedure: MDX mice were dosed once (50 mg/kg) by tail vein injection with one of the following conjugates:
One week post-injection, the MDX mice were sacrificed and RNA was extracted from various muscle tissues. End-point PCR was used to determine the relative abundance of dystrophin mRNA containing exon 23 and mRNA lacking exon 23 due to antisense-induced exon skipping. Percent exon 23 skipping is a measure of antisense activity in vivo.

RSV [2] = settings: BALB/c mice, intranasal treatment before RSV inoculation, cited from earlier work
RSV [3] = settings: cultures of two human airway cell lines (Lai, Stein et al. 2008); cited from earlier work
[4] = format: in vivo, mouse
Procedure: Mice were treated with the conjugates described in Example 30, and KIM-1 levels, BUN levels and survival rate were determined according to the general procedures described in Example 32 below and known in the art. […]. The day of dosing on the study was designated as Study Day 1. Conjugate was administered via tail vein as a slow push bolus (˜5 seconds). All animals were dosed over two days. Groups 1-8 were dosed on the first day and Groups 9-16 were dosed on the second day. Treatment Groups (TG) 13-16 were dosed per the table above. […] The first 2 TG of each conjugate were dosed per the table above. If all animals in 100 mg/kg group died then the remaining TGs of that test article would not be dosed and the study would end. If at least one animal survived 2 hours post-dose in the 100 mg/kg group, then the 150 mg/kg group was dosed. If all animals in the 150 mg/kg group died then the remaining TGs of that test article would not be dosed and the study would end. […]
Any animal showing signs of distress, particularly if death appeared imminent was humanely euthanized according to Numira Biosciences Standard Operating Procedures. Body weights were recorded on the day after arrival, the day of dosing, and the day of necropsy. Detailed clinical observations were conducted and recorded at 0 minutes, 15 minutes, and 2 hours post-dose to assess tolerability of injections.

KIM-1 = format: in vivo, mouse; settings: Example 32, FIG. 10; C57/BL6 mice, single i.v. tail vein injection, kidney qRT-PCR vs GAPDH
Procedure: Mice were treated with the conjugates described in Example 30, and KIM-1 levels, BUN levels and survival rate were determined according to the general procedures described in Example 32 below and known in the art. […]. The right and left kidneys were collected. Tissues were collected within minutes or less of euthanasia. All instruments and tools used were changed between treatment groups. All tissues were flash frozen and stored at <−70° C. as soon as possible after collection.
Kidney injury marker data was obtained as follows. RNA from mouse kidney tissue was purified using Quick Gene Mini80 Tissue Kit SII (Fuji Film). Briefly, approximately 40 mg of tissue was added to 0.5 ml lysis buffer (5 μl […] in 0.5 ml lysis buffer) in a MagnaLyser Green Bead vial (Roche) and homogenized using MagNA Lyser (Roche) with 2 sets of 3×3800 RPM and 3 sets of 1×6500 RPM.
Samples were cooled on ice 3-4 minutes between each low speed set and between each higher speed run. Homogenates were centrifuged 5 minute at 400×g at room temperature. The homogenate was immediately processed for RNA purification according to the Quick Gene Mini80 protocol. […] Total RNA was quantitated with a NanoDrop 2000 spectrophotometer (Thermo Scientific). […]
Analysis was performed using ΔΔCt method. […] Fold change range calculated: 2^−(ΔΔCt+SD) to 2^−(ΔΔCt-SD). […]

Substance: 5′-EG3-M23D-BX(RXRRBR)2 (GGCCAAACCTCGGCTTACCTGAAAT; all phosphorodiamidate morpholino (PMO), 5' {EG3}; morpholino, carrier peptide BX(RXRRBR)2 conjugated at 3' end) [AVI-5225]
- Activity in the MDX mouse model for DMD [1]: activity
- Dose response of exon 23 skipping (dystrophin mRNA exon 23; one week post-treatment, AVI-5225 compared with the other conjugates): similar

Substance: TAATGGGATCCATTTTGTCCC (all phosphorodiamidate morpholino (PMO); peptide-conjugated morpholino (PPMO), peptide not given here) [RSV-AUG-2, peptide conjugated PMO (PPMO) targeting the translation start-site region of RSV L mRNA]
- Reduction in viral titer in lung tissue (RSV [2]; day 5 postinfection): 1.2 log10
- Pulmonary inflammation (RSV [2]; day 7 postinfection): attenuated
- Reduction of viral titers (RSV [3]): > 2.0 log10

Substance: 5′-EG3-M23D-G(R)8 [NG-11-0216]
- Survival rate ([4]; Example 31, FIG. 7B, compared with the XB linked conjugate / amongst the arginine polymers): least tolerated of the arginine polymers

Substance: 5′-EG3-M23D-G(R)6 [NG-11-0009]
- KIM concentrations (KIM-1): lowest
- Doses at which all mice survived ([4]; Example 31, data not shown): up to 400 mg/kg
- Percent exon 23 skipping, diaphragm (dystrophin mRNA exon 23; dosed once 50 mg/kg tail vein, one week post-injection, diaphragm (FIGS. 5B, 6B), amongst the arginine series): highest efficacy
- Percent exon 23 skipping, quadriceps (dystrophin mRNA exon 23; dosed once 50 mg/kg tail vein, one week post-injection, quadriceps (FIGS. 5A, 6A), amongst the arginine series): highest efficacy
